How the values were obtained:
Assay in all cases: radiometric filter-binding kinase assay, Kinase HotSpot
Conditions in all cases: compound 0.5 µM; ATP 10 µM
AKT2 (human) = AKT2 (human) (UniProt P31751)
EPHA2 (human) = EPHA2 (human) (UniProt P29317)
MAP3K14 (human) = MAP3K14 (human) (UniProt Q99558)
KIT (human) = KIT (human) (UniProt P10721)
MAP3K2 (human) = MAP3K2 (human) (UniProt Q9Y2U5)
PRKCB1 (human) = PRKCB1 (human) (UniProt P05771)
ROS1 (human) = ROS1 (human) (UniProt P08922)
TEK (human) = TEK (human) (UniProt Q02763)
CSNK2A1 (human) = CSNK2A1 (human) (UniProt P68400)
DYRK1B (human) = DYRK1B (human) (UniProt Q9Y463)
PRKCZ (human) = PRKCZ (human) (UniProt Q05513)
CAMK2B (human) = CAMK2B (human) (UniProt Q13554)
Sequence of CAMK2B (human) (Q13554 whole entry, looked up): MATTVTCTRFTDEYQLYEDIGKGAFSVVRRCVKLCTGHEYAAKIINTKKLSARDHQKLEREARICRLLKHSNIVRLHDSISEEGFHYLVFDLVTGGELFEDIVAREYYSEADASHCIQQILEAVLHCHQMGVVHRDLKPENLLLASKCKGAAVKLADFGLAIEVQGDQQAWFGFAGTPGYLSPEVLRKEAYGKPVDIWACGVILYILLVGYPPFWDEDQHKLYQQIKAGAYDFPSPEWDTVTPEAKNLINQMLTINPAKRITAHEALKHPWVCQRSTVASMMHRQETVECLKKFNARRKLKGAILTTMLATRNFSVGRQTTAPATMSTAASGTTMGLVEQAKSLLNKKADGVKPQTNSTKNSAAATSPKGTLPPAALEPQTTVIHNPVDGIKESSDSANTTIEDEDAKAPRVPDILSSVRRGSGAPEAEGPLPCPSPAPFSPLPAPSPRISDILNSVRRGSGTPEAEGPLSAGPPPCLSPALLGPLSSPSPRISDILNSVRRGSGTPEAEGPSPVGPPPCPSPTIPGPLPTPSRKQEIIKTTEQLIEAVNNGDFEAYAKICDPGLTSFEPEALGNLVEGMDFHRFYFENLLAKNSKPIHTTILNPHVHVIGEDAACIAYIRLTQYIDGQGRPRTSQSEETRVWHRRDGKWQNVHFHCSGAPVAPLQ

WEE1 (human) = WEE1 (human) (UniProt P30291)
PAK7 (human) = PAK7 (human) (UniProt Q9P286)
CAMK2D (human) = CAMK2D (human) (UniProt Q13557)
STK16 (human) = STK16 (human) (UniProt O75716)
BRSK2 (human) = BRSK2 (human) (UniProt Q8IWQ3)
SRMS (human) = SRMS (human) (UniProt Q9H3Y6)
Sequence of SRMS (human) (Q9H3Y6 whole entry, looked up): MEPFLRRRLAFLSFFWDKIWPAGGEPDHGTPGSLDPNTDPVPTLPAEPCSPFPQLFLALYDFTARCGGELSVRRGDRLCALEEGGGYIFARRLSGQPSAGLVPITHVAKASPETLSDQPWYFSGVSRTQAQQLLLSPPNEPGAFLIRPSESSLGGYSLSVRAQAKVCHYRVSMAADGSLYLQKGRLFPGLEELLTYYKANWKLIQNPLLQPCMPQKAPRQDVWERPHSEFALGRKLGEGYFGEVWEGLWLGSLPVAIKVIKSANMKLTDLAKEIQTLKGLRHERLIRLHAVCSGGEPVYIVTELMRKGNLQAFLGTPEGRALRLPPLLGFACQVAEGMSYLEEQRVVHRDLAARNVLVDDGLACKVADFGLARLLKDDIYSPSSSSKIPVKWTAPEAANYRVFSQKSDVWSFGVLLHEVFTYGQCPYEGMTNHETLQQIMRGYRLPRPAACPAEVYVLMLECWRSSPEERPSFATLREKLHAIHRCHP

PRKG2 (human) = PRKG2 (human) (UniProt Q13237)
ERBB4 (human) = ERBB4 (human) (UniProt Q15303)
Sequence of ERBB4 (human) (Q15303 whole entry, looked up): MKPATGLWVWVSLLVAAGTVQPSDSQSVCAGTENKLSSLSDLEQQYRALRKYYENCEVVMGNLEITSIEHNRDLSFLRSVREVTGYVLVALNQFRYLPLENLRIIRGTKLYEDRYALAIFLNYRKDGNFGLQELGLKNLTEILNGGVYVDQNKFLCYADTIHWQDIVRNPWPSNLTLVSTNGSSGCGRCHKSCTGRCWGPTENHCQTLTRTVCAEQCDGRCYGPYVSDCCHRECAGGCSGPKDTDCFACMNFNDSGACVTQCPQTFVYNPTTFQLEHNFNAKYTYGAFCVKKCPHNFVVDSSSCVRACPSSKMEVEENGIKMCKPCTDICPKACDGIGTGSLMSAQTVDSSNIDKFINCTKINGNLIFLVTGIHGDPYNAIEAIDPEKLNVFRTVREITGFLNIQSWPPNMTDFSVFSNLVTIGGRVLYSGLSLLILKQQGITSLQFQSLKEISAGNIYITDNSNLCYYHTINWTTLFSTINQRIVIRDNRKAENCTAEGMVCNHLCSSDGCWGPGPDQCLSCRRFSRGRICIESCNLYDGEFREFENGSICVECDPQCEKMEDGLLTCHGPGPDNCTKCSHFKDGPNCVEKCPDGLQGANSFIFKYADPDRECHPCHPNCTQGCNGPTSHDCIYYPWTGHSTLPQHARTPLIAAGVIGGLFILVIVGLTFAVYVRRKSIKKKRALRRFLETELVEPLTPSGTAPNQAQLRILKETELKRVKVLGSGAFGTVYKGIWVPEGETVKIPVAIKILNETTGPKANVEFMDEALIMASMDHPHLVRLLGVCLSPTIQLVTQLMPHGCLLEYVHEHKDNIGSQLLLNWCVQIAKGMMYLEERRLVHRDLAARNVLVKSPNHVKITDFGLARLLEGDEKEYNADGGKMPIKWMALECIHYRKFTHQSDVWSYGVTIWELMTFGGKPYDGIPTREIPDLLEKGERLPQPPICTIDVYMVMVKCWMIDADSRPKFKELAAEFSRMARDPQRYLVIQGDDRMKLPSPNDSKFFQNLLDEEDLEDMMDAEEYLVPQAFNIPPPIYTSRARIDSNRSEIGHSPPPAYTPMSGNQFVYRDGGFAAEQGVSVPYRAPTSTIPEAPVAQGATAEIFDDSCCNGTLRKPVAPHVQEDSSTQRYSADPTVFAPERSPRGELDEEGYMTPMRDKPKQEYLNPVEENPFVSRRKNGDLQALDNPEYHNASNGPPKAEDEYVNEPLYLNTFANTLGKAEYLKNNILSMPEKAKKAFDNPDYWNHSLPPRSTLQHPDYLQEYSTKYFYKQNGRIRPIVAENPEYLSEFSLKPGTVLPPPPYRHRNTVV

AURKC (human) = AURKC (human) (UniProt Q9UQB9)
Sequence of AURKC (human) (Q9UQB9 whole entry, looked up): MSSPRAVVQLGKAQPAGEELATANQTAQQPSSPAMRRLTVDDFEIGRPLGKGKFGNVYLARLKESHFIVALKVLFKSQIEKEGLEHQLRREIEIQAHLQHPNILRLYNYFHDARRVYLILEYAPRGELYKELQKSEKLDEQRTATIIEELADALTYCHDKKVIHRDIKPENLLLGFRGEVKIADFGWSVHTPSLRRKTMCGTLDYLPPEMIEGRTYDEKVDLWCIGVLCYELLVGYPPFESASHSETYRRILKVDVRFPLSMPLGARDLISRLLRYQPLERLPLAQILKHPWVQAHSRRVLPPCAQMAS

RAF1 (human) = RAF1 (human) (UniProt P04049)
ZAP70 (human) = ZAP70 (human) (UniProt P43403)
CDK6 CCND1 (human) = CDK6 CCND1 (human) (UniProt Q00534+P24385)
MAP3K3 (human) = MAP3K3 (human) (UniProt Q99759)
SYK (human) = SYK (human) (UniProt P43405)
CDK9 CCNK (human) = CDK9 CCNK (human) (UniProt O75909+P50750)
Sequence of CDK9 CCNK (human) (O75909 whole entry, looked up): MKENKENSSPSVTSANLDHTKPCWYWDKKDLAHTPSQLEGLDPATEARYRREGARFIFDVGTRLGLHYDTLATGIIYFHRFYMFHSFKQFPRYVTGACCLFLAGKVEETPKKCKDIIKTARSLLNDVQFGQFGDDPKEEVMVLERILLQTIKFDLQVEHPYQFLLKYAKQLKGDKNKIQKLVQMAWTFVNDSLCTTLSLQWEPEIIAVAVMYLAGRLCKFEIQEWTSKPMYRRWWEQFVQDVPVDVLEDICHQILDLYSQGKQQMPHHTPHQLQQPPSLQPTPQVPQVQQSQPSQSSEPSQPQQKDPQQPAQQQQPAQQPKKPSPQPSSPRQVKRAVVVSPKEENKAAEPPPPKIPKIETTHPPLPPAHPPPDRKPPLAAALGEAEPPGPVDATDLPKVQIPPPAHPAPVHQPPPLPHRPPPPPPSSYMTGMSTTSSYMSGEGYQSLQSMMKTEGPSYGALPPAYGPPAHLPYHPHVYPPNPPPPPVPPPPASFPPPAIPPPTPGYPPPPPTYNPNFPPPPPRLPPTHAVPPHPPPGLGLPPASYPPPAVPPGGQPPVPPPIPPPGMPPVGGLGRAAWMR
Sequence of CDK9 CCNK (human) (P50750 whole entry, looked up): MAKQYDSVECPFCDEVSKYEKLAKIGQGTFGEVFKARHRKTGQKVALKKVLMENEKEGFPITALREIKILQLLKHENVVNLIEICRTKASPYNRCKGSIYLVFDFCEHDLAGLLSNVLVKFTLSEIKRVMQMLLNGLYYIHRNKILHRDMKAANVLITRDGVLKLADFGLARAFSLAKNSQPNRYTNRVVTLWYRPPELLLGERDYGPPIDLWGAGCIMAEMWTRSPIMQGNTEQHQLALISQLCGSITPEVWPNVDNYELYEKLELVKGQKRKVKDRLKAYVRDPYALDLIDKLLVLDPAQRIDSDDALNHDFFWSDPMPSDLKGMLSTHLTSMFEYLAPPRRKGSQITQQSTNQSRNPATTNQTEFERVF

MAP3K9 (human) = MAP3K9 (human) (UniProt P80192)
IKBKE (human) = IKBKE (human) (UniProt Q14164)
AURKB (human) = AURKB (human) (UniProt Q96GD4)
CDK1 CCNB1 (human) = CDK1 CCNB1 (human) (UniProt P06493+P14635)
STK4 (human) = STK4 (human) (UniProt Q13043)
MAPK10 (human) = MAPK10 (human) (UniProt P53779)
CAMK1G (human) = CAMK1G (human) (UniProt Q96NX5)
PRKD3 (human) = PRKD3 (human) (UniProt O94806)
Sequence of PRKD3 (human) (O94806 whole entry, looked up): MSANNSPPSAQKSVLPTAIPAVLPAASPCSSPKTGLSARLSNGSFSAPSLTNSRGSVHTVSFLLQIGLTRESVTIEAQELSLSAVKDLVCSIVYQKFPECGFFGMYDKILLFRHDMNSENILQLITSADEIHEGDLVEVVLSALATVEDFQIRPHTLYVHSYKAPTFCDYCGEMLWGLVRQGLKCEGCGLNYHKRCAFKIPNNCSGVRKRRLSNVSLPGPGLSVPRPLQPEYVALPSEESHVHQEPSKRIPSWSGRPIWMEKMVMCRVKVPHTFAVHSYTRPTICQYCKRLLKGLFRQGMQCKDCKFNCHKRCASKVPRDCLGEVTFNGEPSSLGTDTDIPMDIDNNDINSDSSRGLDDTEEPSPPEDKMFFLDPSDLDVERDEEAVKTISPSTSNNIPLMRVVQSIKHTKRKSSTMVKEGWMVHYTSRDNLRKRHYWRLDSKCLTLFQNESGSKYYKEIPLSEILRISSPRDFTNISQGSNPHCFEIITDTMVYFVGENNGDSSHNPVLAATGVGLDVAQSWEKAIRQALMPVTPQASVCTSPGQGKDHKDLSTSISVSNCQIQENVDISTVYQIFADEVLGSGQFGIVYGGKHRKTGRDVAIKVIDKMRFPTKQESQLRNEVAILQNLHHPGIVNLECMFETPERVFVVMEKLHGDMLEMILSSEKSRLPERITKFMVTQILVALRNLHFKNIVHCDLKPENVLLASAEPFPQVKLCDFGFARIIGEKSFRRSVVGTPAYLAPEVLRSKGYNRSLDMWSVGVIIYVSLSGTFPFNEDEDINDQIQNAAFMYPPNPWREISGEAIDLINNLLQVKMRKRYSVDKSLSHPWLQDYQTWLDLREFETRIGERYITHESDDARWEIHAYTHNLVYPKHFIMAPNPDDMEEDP

MAP3K11 (human) = MAP3K11 (human) (UniProt Q16584)
PDPK1 (human) = PDPK1 (human) (UniProt O15530)
MAP3K7 TAB1 (human) = MAP3K7 TAB1 (human) (UniProt O43318+Q15750)
CAMK1 (human) = CAMK1 (human) (UniProt Q14012)
Sequence of CAMK1 (human) (Q14012 whole entry, looked up): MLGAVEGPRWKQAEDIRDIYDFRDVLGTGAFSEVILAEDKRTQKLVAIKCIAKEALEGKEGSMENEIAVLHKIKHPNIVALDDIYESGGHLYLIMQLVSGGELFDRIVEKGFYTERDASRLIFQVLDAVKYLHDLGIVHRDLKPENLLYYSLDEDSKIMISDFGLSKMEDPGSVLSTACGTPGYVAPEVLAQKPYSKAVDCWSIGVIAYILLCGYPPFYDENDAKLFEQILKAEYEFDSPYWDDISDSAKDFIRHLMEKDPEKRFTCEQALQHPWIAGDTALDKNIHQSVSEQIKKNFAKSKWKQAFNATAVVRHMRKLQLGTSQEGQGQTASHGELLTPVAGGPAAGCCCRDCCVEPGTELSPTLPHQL

STK10 (human) = STK10 (human) (UniProt O94804)
PDGFRA (human) = PDGFRA (human) (UniProt P16234)
CSK (human) = CSK (human) (UniProt P41240)

O=c1cc(N2CCNCC2)oc2c(-c3ccccc3)cccc12
residual activity (AKT2 (human)): 100% | residual activity (EPHA2 (human)): 108% | residual activity (MAP3K14 (human)): 110% | residual activity (KIT (human)): 101% | residual activity (MAP3K2 (human)): 105% | residual activity (PRKCB1 (human)): 91.6% | residual activity (ROS1 (human)): 99.2% | residual activity (TEK (human)): 95% | residual activity (CSNK2A1 (human)): 89.9% | residual activity (DYRK1B (human)): 99.2% | residual activity (PRKCZ (human)): 116% | residual activity (CAMK2B (human)): 108% | residual activity (WEE1 (human)): 83.4% | residual activity (PAK7 (human)): 104% | residual activity (CAMK2D (human)): 93.6% | residual activity (STK16 (human)): 97.4% | residual activity (BRSK2 (human)): 103% | residual activity (SRMS (human)): 104% | residual activity (PRKG2 (human)): 107% | residual activity (ERBB4 (human)): 104% | residual activity (AURKC (human)): 97.6% | residual activity (RAF1 (human)): 94.2% | residual activity (ZAP70 (human)): 102% | residual activity (CDK6 CCND1 (human)): 94.6% | residual activity (MAP3K3 (human)): 109% | residual activity (SYK (human)): 104% | residual activity (CDK9 CCNK (human)): 94.2% | residual activity (MAP3K9 (human)): 101% | residual activity (IKBKE (human)): 88.1% | residual activity (AURKB (human)): 97.8% | residual activity (CDK1 CCNB1 (human)): 106% | residual activity (STK4 (human)): 88.7% | residual activity (MAPK10 (human)): 85% | residual activity (CAMK1G (human)): 94.7% | residual activity (PRKD3 (human)): 88.6% | residual activity (MAP3K11 (human)): 97.8% | residual activity (PDPK1 (human)): 110% | residual activity (MAP3K7 TAB1 (human)): 94.2% | residual activity (CAMK1 (human)): 99.2% | residual activity (STK10 (human)): 94.3% | residual activity (PDGFRA (human)): 97.4% | residual activity (CSK (human)): 89.7%

COc1cc2nccc(Oc3ccc(NC(=S)NC(=O)c4ccccc4C)cc3)c2cc1OC
residual activity (AKT2 (human)): 102% | residual activity (EPHA2 (human)): 86.9% | residual activity (MAP3K14 (human)): 106% | residual activity (KIT (human)): 34.5% | residual activity (MAP3K2 (human)): 83.1% | residual activity (PRKCB1 (human)): 91.9% | residual activity (ROS1 (human)): 26.7% | residual activity (TEK (human)): 90.1% | residual activity (CSNK2A1 (human)): 98.9% | residual activity (DYRK1B (human)): 110% | residual activity (PRKCZ (human)): 96.9% | residual activity (CAMK2B (human)): 104% | residual activity (WEE1 (human)): 89.6% | residual activity (PAK7 (human)): 102% | residual activity (CAMK2D (human)): 102% | residual activity (STK16 (human)): 101% | residual activity (BRSK2 (human)): 93% | residual activity (SRMS (human)): 111% | residual activity (PRKG2 (human)): 90.5% | residual activity (ERBB4 (human)): 114% | residual activity (AURKC (human)): 30.2% | residual activity (RAF1 (human)): 97% | residual activity (ZAP70 (human)): 97% | residual activity (CDK6 CCND1 (human)): 87.1% | residual activity (MAP3K3 (human)): 105% | residual activity (SYK (human)): 95.5% | residual activity (CDK9 CCNK (human)): 108% | residual activity (MAP3K9 (human)): 99.3% | residual activity (IKBKE (human)): 96.2% | residual activity (AURKB (human)): 4.31% | residual activity (CDK1 CCNB1 (human)): 90.7% | residual activity (STK4 (human)): 95.6% | residual activity (MAPK10 (human)): 98.7% | residual activity (CAMK1G (human)): 99.5% | residual activity (PRKD3 (human)): 97.8% | residual activity (MAP3K11 (human)): 95.5% | residual activity (PDPK1 (human)): 105% | residual activity (MAP3K7 TAB1 (human)): 95.6% | residual activity (CAMK1 (human)): 101% | residual activity (STK10 (human)): 11.9% | residual activity (PDGFRA (human)): 12.5% | residual activity (CSK (human)): 75.3%

O=C(Nc1ccc(Cl)cc1)c1ccccc1NCc1ccncc1
residual activity (AKT2 (human)): 95.2% | residual activity (EPHA2 (human)): 101% | residual activity (MAP3K14 (human)): 114% | residual activity (KIT (human)): 33.6% | residual activity (MAP3K2 (human)): 92.8% | residual activity (PRKCB1 (human)): 98.1% | residual activity (ROS1 (human)): 100% | residual activity (TEK (human)): 92.4% | residual activity (CSNK2A1 (human)): 91.1% | residual activity (DYRK1B (human)): 106% | residual activity (PRKCZ (human)): 100% | residual activity (CAMK2B (human)): 93.4% | residual activity (WEE1 (human)): 90.1% | residual activity (PAK7 (human)): 79.4% | residual activity (CAMK2D (human)): 101% | residual activity (STK16 (human)): 94.1% | residual activity (BRSK2 (human)): 102% | residual activity (SRMS (human)): 97.9% | residual activity (PRKG2 (human)): 99.1% | residual activity (ERBB4 (human)): 71.3% | residual activity (AURKC (human)): 93.4% | residual activity (RAF1 (human)): 62.6% | residual activity (ZAP70 (human)): 103% | residual activity (CDK6 CCND1 (human)): 93.4% | residual activity (MAP3K3 (human)): 96.2% | residual activity (SYK (human)): 93.6% | residual activity (CDK9 CCNK (human)): 95.5% | residual activity (MAP3K9 (human)): 89% | residual activity (IKBKE (human)): 98.9% | residual activity (AURKB (human)): 77.7% | residual activity (CDK1 CCNB1 (human)): 96.3% | residual activity (STK4 (human)): 98.7% | residual activity (MAPK10 (human)): 89.9% | residual activity (CAMK1G (human)): 101% | residual activity (PRKD3 (human)): 92.1% | residual activity (MAP3K11 (human)): 89% | residual activity (PDPK1 (human)): 95.3% | residual activity (MAP3K7 TAB1 (human)): 98.1% | residual activity (CAMK1 (human)): 103% | residual activity (STK10 (human)): 81.8% | residual activity (PDGFRA (human)): 81.3% | residual activity (CSK (human)): 101%

Reference: the kinase profiling compilation of Christmann-Franck et al. (2016)
